The results in this text go back to patent US9144239B2, “Macrocyclic picolinamides as fungicides” (DOW AGROSCIENCES LLC, priority 2012, dated 2015).

Common to all, as to format: in vivo
Experiment [1] has as its system Mycosphaerella graminicola; anamorph: Septoria tritici. Briefly: Fungicidal activity: leaf blotch of wheat (SEPTTR), wheat seedlings. The following applies: Zymoseptoria tritici. A digest of the protocol: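 Compounds in acetone were diluted with nine volumes of water containing 110 ppm Triton X-100 and sprayed to run-off on Yuma wheat seedlings at first-leaf stage. Septoria tritici spores were inoculated before or after treatment, followed by dew chambers at 100% RH and 20 °C, then greenhouse at 20 °C. Severity (0–100%) was scored once untreated plants were fully diseased; control was calculated relative to untreated plants.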

The subject of experiment [2] is Puccinia triticina; synonym: Puccinia recondita f. sp. tritici. The experiment is described as follows: Fungicide mobility (dropline mobility test): wheat brown rust (PUCCRT). The following applies: 1 ug/leaf. Here is the method:
Evaluation of Fungicide Mobility: Wheat Brown Rust (Puccinia triticina; Synonym: Puccinia recondita f. sp. tritici; Bayer Code PUCCRT) “Yuma” wheat seedlings were used in the test. One mg of compound was dissolved in 9 μl of EC blank (emulsifiable concentrate) and 500 μl of acetone. Acetone was then evaporated overnight by leaving the vial open in a fume hood. Two milliliters of water containing 110 ppm Triton X-100 was added to each vial to prepare application solutions. A 2 μl drop of formulated material was applied to a marked line on the adaxial surface 5 cm from the leaf tip of the primary leaves. The primary leaves were kept in a horizontal position. Each treatment had 6 replicates. Plants were inoculated with PUCCRT 1-day after (1DPM) or 3-day prior to (3DCM) compound applications. When rust was fully expressed on primary leaves on control plants, the zone of treated leaves that was disease-free in the acropetal direction was measured with a ruler and converted to percent of the distance from marked line to leaf tip.

The test system is the same in experiment [3]. Briefly: Fungicidal activity: wheat brown rust (PUCCRT), wheat seedlings. Put shortly: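 Wheat (Yuma) seedlings at first-leaf stage, inoculated with Puccinia triticina spores before or after treatment, held overnight in dark dew room at 22° C, 100% RH, then greenhouse at 24° C. Acetone solutions diluted with nine volumes water containing 110 ppm Triton X-100, sprayed to run-off. Percent disease control derived from severity (0–100%) relative to untreated plants.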

Setting [4] is: 24 h, 100 ppm, 1 Day Protectant, wheat, read-out: Disease Control SEPTTR 1DP.
The mark [5] stands for this setting: 72 h, 100 ppm, 3 Day Curative, wheat, read-out: Disease Control SEPTTR 3DC.
Where [6] appears, read: 24 h, 1 Day Protectant Mobility, read-out: Dropline Mobility Test PUCCRT 1DPM.
[7] abbreviates: 24 h, 100 ppm, 1 Day Protectant, wheat, read-out: Disease Control PUCCRT 1DP.
Setting [8] is: 72 h, 100 ppm, 3 Day Curative, wheat, read-out: Disease Control PUCCRT 3DC.
[9] abbreviates: 72 h, 3 Day Curative Mobility, read-out: Dropline Mobility Test PUCCRT 3DCM.

Structures are written as SMILES. Where two headings read alike, the source gives them in different places.

For `COc1ccnc(C(=O)N[C@H]2CO[C@@H](C)[C@H](OCC(C)C)[C@@H](OCC(C)C)[C@H](C)OC2=O)c1O` [Compound 26], the pest or weed control at 100 ppm in experiment [1] (setting [4]) lay in the range of 80 to 100%; in experiment [1] (setting [5]), 0 to 80%; in experiment [3] (setting [7]), 80 to 100%; in experiment [3] (setting [8]), 80 to 100%. Further, the pest or weed control at 1 µg/leaf in experiment [2] (setting [6]) lay in the range of 0 to 80%.

Consider `CCCO[C@H]1[C@H](C)OC(=O)[C@@H](NC(=O)c2nccc(OC)c2O)COC[C@@H]1OCCC` [Compound 58, 3-hydroxy-4-methoxy-N-((3S,7S,8S,9S)-9-methyl-2-oxo-7,8-dipropoxy-1,5-dioxonan-3-yl)picolinamide], for which the pest or weed control at 100 ppm was in the range of 0 to 80% in experiment [1] (24 h, read-out: Disease Control SEPTTR 1DP); 0 to 80% in experiment [1] (72 h, read-out: Disease Control SEPTTR 3DC); 80 to 100% in experiment [3] (24 h, read-out: Disease Control PUCCRT 1DP); 80 to 100% in experiment [3] (72 h, read-out: Disease Control PUCCRT 3DC). Besides, the pest or weed control at 1 µg/leaf in experiment [2] (setting [6]) was in the range of 80 to 100%; in experiment [2] (setting [9]), 0 to 80%.

In the case of `CCCO[C@H]1[C@H](C)OC(=O)[C@@H](NC(=O)c2nccc(OC)c2OCOC(C)=O)COC[C@@H]1OCCC` [Compound 61], the pest or weed control at 100 ppm in experiment [1] (setting [4]), in experiment [1] (setting [5]), in experiment [3] (setting [7]) and in experiment [3] (setting [8]) was 80 to 100% each time. The pest or weed control at 1 µg/leaf was 80 to 100% in experiment [2] (setting [6]) and 0 to 80% in experiment [2] (setting [9]).

For the compound `CCCCCO[C@H]1[C@H](C)OC(=O)[C@@H](NC(=O)c2nccc(OC)c2O)COC[C@@H]1OCCCCC` [Compound 62], the pest or weed control at 100 ppm in experiment [1] (setting [5]) and in experiment [3] (setting [8]) was 80 to 100% throughout. Also, in experiment [2] (setting [6]), the pest or weed control at 1 µg/leaf lay within 0 to 80%.

With `CCCCCO[C@H]1[C@H](C)OC(=O)[C@@H](NC(=O)c2nccc(OC)c2OCOC(C)=O)COC[C@@H]1OCCCCC` [Compound 64], the pest or weed control at 100 ppm in experiment [1] (setting [4]), in experiment [1] (setting [5]), in experiment [3] (setting [7]) and in experiment [3] (setting [8]) was 80 to 100% throughout. For the same compound, the pest or weed control at 1 µg/leaf in experiment [2] (setting [6]) and in experiment [2] (setting [9]) was 0 to 80% in each case.

As to `CCCCO[C@H]1COC[C@H](NC(=O)c2nccc(OC)c2O)C(=O)O[C@@H](C)[C@@H]1OC(=O)c1ccccc1` [Compound 66], the pest or weed control at 100 ppm in experiment [1] (setting [4]) fell in the range of 80 to 100%; in experiment [1] (setting [5]), 0 to 80%; in experiment [3] (setting [7]), 80 to 100%; in experiment [3] (setting [8]) it was 80 to 100%. In addition, the pest or weed control at 1 µg/leaf in experiment [2] (setting [6]) and in experiment [2] (setting [9]) was 0 to 80% in each case.

Consider `COc1ccnc(C(=O)N[C@H]2COC[C@H](OCCCC(F)(F)F)[C@@H](OCCCC(F)(F)F)[C@H](C)OC2=O)c1O` [Compound 67], for which the pest or weed control at 100 ppm in experiment [1] (setting [4]) lay within 0 to 80%; in experiment [1] (setting [5]) it was 0 to 80%; in experiment [3] (setting [7]), 80 to 100%; in experiment [3] (setting [8]) it was 0 to 80%. The pest or weed control at 1 µg/leaf in experiment [2] (setting [6]) and in experiment [2] (setting [9]) was 0 to 80% each time.

As for `CCCCO[C@H]1COC[C@H](NC(=O)c2nccc(OC)c2OCOC(C)=O)C(=O)O[C@@H](C)[C@@H]1OC(=O)c1ccccc1` [Compound 69], the pest or weed control at 100 ppm in experiment [1] (setting [4]), in experiment [1] (setting [5]), in experiment [3] (setting [7]) and in experiment [3] (setting [8]) was 80 to 100% each time. For the same compound, the pest or weed control at 1 µg/leaf in experiment [2] (setting [6]) and in experiment [2] (setting [9]) was 0 to 80% in each case.

`COc1ccnc(C(=O)N[C@H]2COC[C@H](OCC(C)C)[C@@H](O)[C@H](C)OC2=O)c1O` [Compound 70]: the pest or weed control at 100 ppm in experiment [1] (setting [4]), in experiment [1] (setting [5]), in experiment [3] (setting [7]) and in experiment [3] (setting [8]) was 0 to 80% throughout. Further, the pest or weed control at 1 µg/leaf in experiment [2] (setting [6]) and in experiment [2] (setting [9]) was 0 to 80% each time.

For `COc1ccnc(C(=O)N[C@H]2COC[C@H](OC3CCCCC3)[C@@H](O)[C@H](C)OC2=O)c1O` [Compound 74], the pest or weed control at 100 ppm in experiment [1] (setting [4]), in experiment [1] (setting [5]), in experiment [3] (setting [7]) and in experiment [3] (setting [8]) was 0 to 80% each time. The pest or weed control at 1 µg/leaf in experiment [2] (setting [6]) and in experiment [2] (setting [9]) was 0 to 80% each time.

`COc1ccnc(C(=O)N[C@H]2COC[C@H](OCC(C)C)[C@@H](OC3CCCCC3)[C@H](C)OC2=O)c1O` [Compound 75]: the pest or weed control at 100 ppm in experiment [1] (setting [4]) lay in the range of 80 to 100%; in experiment [1] (setting [5]), 0 to 80%; in experiment [3] (setting [7]), 80 to 100%; in experiment [3] (setting [8]), 80 to 100%. Further, the pest or weed control at 1 µg/leaf in experiment [2] (setting [6]) and in experiment [2] (setting [9]) was 0 to 80% in each case.

On to `COc1ccnc(C(=O)N[C@H]2COC[C@H](OC3CCCCC3)[C@@H](OCC(C)C)[C@H](C)OC2=O)c1OCOC(C)=O` [Compound 76], for which the pest or weed control at 100 ppm in experiment [1] (setting [4]), in experiment [1] (setting [5]), in experiment [3] (setting [7]) and in experiment [3] (setting [8]) was 80 to 100% each time. Also, the pest or weed control at 1 µg/leaf in experiment [2] (setting [6]) was in the range of 80 to 100%; in experiment [2] (setting [9]) it was 0 to 80%.

For `COc1ccc(O[C@H]2[C@H](C)OC(=O)[C@@H](NC(=O)c3nccc(OC)c3OCOC(C)=O)COC[C@@H]2Oc2ccc(OC)cc2)cc1` [Compound 220], the pest or weed control at 100 ppm in experiment [1] (setting [4]), in experiment [1] (setting [5]), in experiment [3] (setting [7]) and in experiment [3] (setting [8]) was 80 to 100% each time.

For the compound `COc1ccnc(C(=O)N[C@H]2COC[C@H](OC3CCCC3)[C@@H](Oc3ccccc3)[C@H](C)OC2=O)c1OCOC(C)=O` [Compound 223], the pest or weed control at 100 ppm in experiment [1] (setting [4]), in experiment [1] (setting [5]), in experiment [3] (setting [7]) and in experiment [3] (setting [8]) was 80 to 100% each time.

Consider `COc1ccnc(C(=O)N[C@H]2COC[C@H](Oc3ccccc3)[C@@H](OC3CCCC3)[C@H](C)OC2=O)c1OCOC(C)=O` [Compound 224], for which the pest or weed control at 100 ppm in experiment [1] (setting [4]), in experiment [1] (setting [5]), in experiment [3] (setting [7]) and in experiment [3] (setting [8]) was 80 to 100% throughout.

As to `CCOCC(=O)OCOc1c(OC)ccnc1C(=O)N[C@H]1COC[C@H](Oc2ccc(C)cc2)[C@@H](Oc2ccc(C)cc2)[C@H](C)OC1=O` [Compound 225], the pest or weed control at 100 ppm in experiment [1] (setting [4]), in experiment [1] (setting [5]), in experiment [3] (setting [7]) and in experiment [3] (setting [8]) was 80 to 100% throughout.

For `COc1ccnc(C(=O)N[C@H]2COC[C@H](Oc3ccc(C)cc3)[C@@H](Oc3ccc(C)cc3)[C@H](C)OC2=O)c1OCOC(C)=O` [Compound 226], the pest or weed control at 100 ppm in experiment [1] (setting [4]), in experiment [1] (setting [5]), in experiment [3] (setting [7]) and in experiment [3] (setting [8]) was 80 to 100% in each case.

As to `CCOCC(=O)OCOc1c(OC)ccnc1C(=O)N[C@H]1COC[C@H](Oc2ccc(F)cc2)[C@@H](OCC(C)C)[C@H](C)OC1=O` [Compound 227], the pest or weed control at 100 ppm in experiment [1] (setting [4]), in experiment [1] (setting [5]), in experiment [3] (setting [7]) and in experiment [3] (setting [8]) was 80 to 100% in each case.

Consider `CCOCC(=O)OCOc1c(OC)ccnc1C(=O)N[C@H]1COC[C@H](Oc2ccc(F)cc2)[C@@H](Oc2ccc(F)cc2)[C@H](C)OC1=O` [Compound 230], for which the pest or weed control at 100 ppm in experiment [1] (setting [4]), in experiment [1] (setting [5]), in experiment [3] (setting [7]) and in experiment [3] (setting [8]) was 80 to 100% throughout.

As for `COc1ccnc(C(=O)N[C@H]2COC[C@H](OCC3CC3)[C@@H](OCC3CC3)[C@H](C)OC2=O)c1OCOC(C)=O` [Compound 233], the pest or weed control at 100 ppm in experiment [1] (setting [4]) lay in the range of 80 to 100%; in experiment [1] (setting [5]), 0 to 80%; in experiment [3] (setting [7]) it was 80 to 100%; in experiment [3] (setting [8]) it was 80 to 100%.
